Source: patent publication US20250122539A1, “LARGE SCALE PRODUCTION OF DIVARIN, DIVARINIC ACID AND OTHER ALKYL RESORCINOLS BY FERMENTATION” (priority 2021, published 2025)

B1: CsAAE1: Cannabis sativa acyl activating enzyme 1 (SEQ ID NO: 4), codon-optimized for S. cerevisiae, on plasmid pLOA-059 (protein, listed as Cannabis sativa)
chain: MGKNYKSLDSVVASDFIALGITSEVAETLHGRLAEIVCNYGAATPQTWINIANHILSPDLPFSLHQMLFYGCYKDFGPAPPAWIPDPEKVKSTNLGALLEKRGKEFLGVKYKDPISSFSHFQEFSVRNPEVYWRTVLMDEMKISFSKDPECILRRDDINNPGGSEWLPGGYLNSAKNCLNVNSNKKLNDTMIVWRDEGNDDLPLNKLTLDQLRKRVWLVGYALEEMGLEKGCAIAIDMPMHVDAVVIYLAIVLAGYVVVSIADSFSAPEISTRLRLSKAKAIFTQDHIIRGKKRIPLYSRVVEAKSPMAIVIPCSGSNIGAELRDGDISWDYFLERAKEFKNCEFTAREQPVDAYTNILFSSGTTGEPKAIPWTQATPLKAAADGWSHLDIRKGDVIVWPTNLGWMMGPWLVYASLLNGASIALYNGSPLVSGFAKFVQDAKVTMLGVVPSIVRSWKSTNCVSGYDWSTIRCFSSSGEASNVDEYLWLMGRANYKPVIEMCGGTEIGGAFSAGSFLQAQSLSSFSSQCMGCTLYILDKNGYPMPKNKPGIGELALGPVMFGASKTLLNGNHHDVYFKGMPTLNGEVLRRHGDIFELTSNGYYHAHGRADDTMNIGGIKISSIEIERVCNEVDDRVFETTAIGVPPLGGGPEQLVIFFVLKDSNDTTIDLNQLRLSFNLGLQKKLNPLFKVTRVVPLSSLPRTATNKIMRRVLRQQFSHFE
B2: AtAAE7: acyl activating enzyme 7 from Arabidopsis thaliana (Uniprot Q8VZF1), C-terminal peroxisomal targeting sequence removed, SEQ ID NO: 9 (protein, listed as Arabidopsis thaliana)
chain: MAATKWRDIDDLPKIPANYTALTPLWFLDRAAVVHPTRKSVIHGSREYTWRQTYDRCRRLASALADRSIGPGSTVAIIAPNIPAMYEAHFGVPMCGAVLNCVNIRLNAPTVAFLLSHSQSSVIMVDQEFFTLAEDSLRLMEEKAGSSFKRPLLIVIGDHTCAPESLNRALSKGAIEYEDFLATGDPNYPWQPPADEWQSIALGYTSGTTASPKGVVLHHRGAYIMALSNPLIWGMQDGAVYLWTLPMFHCNGWCFPWSLAVLSGTSICLRQVTAKEVYSMIAKYKVTHFCAAPVVLNAIVNAPKEDTILPLPHTVHVMTAGAAPPPSVLFSMNQKGFRVAHTYGLSETYGPSTVCAWKPEWDSLPPETQAKLNARQGVRYTGMEQLDVIDTQTGKPVPADGKTAGEIVFRGNMVMKGYLKNPEANKETFAGGWFHSGDIAVKHPDNYIEIKDRSKDVIISGGENISSVEVENVVYHHPAVLEASVVARPDERWQESPCAFVTLKSDYEKHDQNKLAQDIMKFCREKLPAYWVPKSVVFGPLPKTATGKIQKHILRTKAKEMGPVPR

Columns and labels:
S. cerevisiae = test: Toxicity of organic phase (overlay/underlay) compounds to growth of the host strain; conditions: for toxicity to growth: compound as organic phase
Source text: In-situ liquid-liquid extraction (biphasic fermentation) is a strategy that can be employed in accordance with the present invention for physical separation of product from microorganisms via partitioning into the water immiscible organic liquid phase from an aqueous culture phase. The organic liquid phase or organic phase is present as either an overlay if its density is less than that of the aqueous phase, or an underlay if its density is greater than that of the aqueous phase. Certain properties of the overlay or underlay are considered for production of olivetolic acid/olivetol and other resorcinols such as of formulas IA and IB: (1) non-toxic or low toxicity for growth of the host strain, and/or (2) a favorable partitioning coefficient of the product in the organic phase vs. the aqueous phase, and/or (3) preferably a lower partition coefficient for fed hexanoic acid (for olivetolic acid/olivetol) or other fatty acid such as RCO2H (for other resorcinols) in the organic phase vs. the aqueous phase. Additional properties of the organic phase enhance its suitability for downstream conversion, e.g. and without limitation, to cannabigerol and other cannabinoid compounds, including suitability as a solvent or co-solvent during downstream prenylation or other reactions, and boiling point if downstream separation by distillation is employed.

butyric acid = test: Two plasmid screening system for relative AAE activity, butyric acid feeding; assay type: cell-based, Saccharomyces cerevisiae; conditions: for Divarin / Divarinic acid: average production, LSC3-297/pLOA-049 plus AAE plasmid, Delft medium pH 5.5 with 150 mM MES, 9.08 mM butyric acid, 48 hours
Source text: (§1) In order to perform in vivo screening in Saccharomyces cerevisiae for acyl activating enzyme (AAE) variants with enhanced activity and/or expression, a two plasmid screening system was employed to generate an artificial bottleneck in AAE activity. This bottleneck was generated by natural copy number variation of the two plasmids, with a multi-copy 2 micron episomal plasmid, pLOA-049, harboring an olivetol synthase homologue from C. sativa (CsTKS) fused with a T2A self-cleaving peptide (Kearsey et al., FEBS J. 287:1511-1524, 2020) to a gene encoding olivetol acid cyclase from C. sativa (CsOAC), and a lower copy centromeric plasmid with an autonomous replicating sequence (CEN/ARS) harboring different acyl activating enzymes/acyl-CoA synthetases from different organisms. Markers employed on the 2 micron plasmid were orotidine-5′-phosphate decarboxylase from S. cerevisiae (URA3) and on the CEN/ARS plasmid, the multifunctional histidine biosynthesis gene HIS4 from S. cerevisiae. The cassette architecture in the plasmids was based on integrated cassettes in production strain LSC3-2, with a pGAL1-10 bidirectional promoter driving expression of CsTKS and CsOAC from pGAL1 with a S. cerevisiae CYC1 terminator, and insulated downstream of pGAL10 by a S. cerevisiae GRE3 terminator. Likewise on the CEN/ARS plasmid, a bidirectional pGAL1-10 promoter drives expression of CsAAE1 from pGAL10 with a S. cerevisiae GRE3 terminator, and is insulated downstream of pGAL1 by a S. cerevisiae CYC1 terminator.
(§2) To screen activity of AAE variants, first a CEN/ARS containing plasmid expressing AAEs co-transformed with the 2 micron plasmid expressing CsTKS translationally fused to CsOAC via the T2A self-cleaving peptide into strain LSC3-297 using the transformation method described by Gietz and Schiestl (Nat. Protocols 2:31-34, 2007). Double plasmid transformants were selected on YNB agar with 2% (w/v) glucose and CSM minus histidine and minus uracil (CSM-His-Ura, Sunrise Science Products) and grown in a 30° C. incubator for approximately 48 hours or at room temperature for approximately 72 hours. Individual colonies were picked into wells of 96 deepwell plates containing 0.3 mL per well of Delft medium with 2% (w/v) glucose and 0.75 g/L CSM-His-Ura. Delft medium base contains (per liter solution) 7.5 g ammonium sulfate, 14.4 g potassium phosphate monobasic (added from a 1 M stock solution adjusted to pH 6.5 with sodium hydroxide), 0.5 g magnesium sulfate heptahydrate, 3.6 mL of a trace metal solution (consisting of 130 g/L citric acid monohydrate, 0.574 g/L copper (II) sulfate pentahydrate, 8.07 g/L iron (III) chloride hexahydrate, 0.5 g/L boric acid, 0.333 g/L manganese (II) chloride, 0.2 g/L sodium molybdate, and 4.67 g/L zinc sulfate heptahydrate), and 1.0 ml of a vitamin solution (0.008 g/L biotin, 1.6 g/L calcium pantothenate, 0.008 g/L folic acid, 8 g/L myo-inositol, 1.6 g/L nicotinic acid, 0.8 g/L p-aminobenzoic acid, 1.6 g/L pyridoxal hydrochloride, 0.8 g/L riboflavin, 1.6 g/L thiamine hydrochloride, adjusted to pH […] with sodium hydroxide). Plates were grown for 16-24 hours at 30° C. in a plate shaker incubator maintained at 80% relative humidity and 900 rpm shaking (3 mm diameter throw). Ten microliters of preculture was then used to inoculate wells of 96 deepwell plates containing 0.3 mL per well of Delft medium with 2% (w/v) glucose, 0.75 g/L CSM-His-Ura, either 9.08 mM butyric acid or 3.44 mM hexanoic acid, and for divarin/divarinic acid, additionally 150 mM 2-(N-morpholino) ethanesulfonic acid (MES) at pH 5.5 and with the additional modification of the 1 M potassium phosphate monobasic stock in the Delft medium base also adjusted to pH 5.5 (for olivetol/olivetolic acid production from hexanoic acid, no MES was added and potassium phosphate monobasic solution used in the Delft medium base was at pH 6.5). […]

hexanoic acid = test: Two plasmid screening system for relative AAE activity, hexanoic acid feeding; assay type: cell-based, Saccharomyces cerevisiae; conditions: for Olivetol / Olivetolic acid: average production, LSC3-297/pLOA-049 plus AAE plasmid, Delft medium pH 6.5, 3.44 mM hexanoic acid, 48 hours
Source text: as §1, §2

Row | Molecule | toxicity to growth (S. cerevisiae; under the test conditions) | other results
1 | 2,2,4-trimethyl-1,3-pentanediol monoisobutyrate [Texanol] | inhibitory to growth | –
2 | CCCCCCCCCCO [Decanol] | toxic to growth | –
3 | CCCCOC(=O)CCCCCCCCC(=O)OCCCC [Dibutyl sebacate] | completely non-inhibitory to growth | –
4 | CCCCCCCCCCCCCC(=O)OC(C)C [IPM, isopropyl myristate] | non-toxic | –
5 | CCCCCCCC(=O)OC(C)C [Isopropyl octanoate] | moderately inhibitory but allowed for some growth | –
6 | CCCCCCCC(=O)OCC(COC(=O)CCCCCCC)OC(=O)CCCCCCC [Tricaprylin] | fairly toxic, however allowed some growth of strains | –
7 | CCCCCCCCCCCC(=O)OCCCC [butyl laurate] | non-toxic | –
8 | CC(C)(C)OC(=O)CC(=O)OC(C)(C)C [di-tert-butyl malonate] | – | toxicity toward growth of mixtures (S. cerevisiae; 1-10% (v/v), particularly 1-2.5% (v/v), in IPM and isopar M): much lower toxicity; toxicity to growth (S. cerevisiae; with galactose addition): appearing toxic or to induce substantial lag; toxicity to growth (S. cerevisiae; with glucose addition): supported growth of all strains
9 | CCCCOC(=O)CCCCC(=O)OCCCC [dibutyl adipate] | no apparent toxicity | –
10 | CCOC(=O)C(CC)(CC)C(=O)OCC [diethyl diethylmalonate] | – | toxicity to growth (S. cerevisiae; with galactose addition): substantial lag; toxicity to growth (S. cerevisiae; with glucose addition): modest growth by most strains
11 | CCOC(=O)CCCCCCCCC(=O)OCC [diethyl sebacate] | moderately growth inhibitory | toxicity to growth (S. cerevisiae; with galactose addition): substantial lag; toxicity to growth (S. cerevisiae; with glucose addition): modest growth by most strains
12 | CC(C)OC(=O)CCCCC(=O)OC(C)C [diisopropyl adipate] | Growth was observed | –
13 | CCCCCCCCCCCC [dodecane] | Lack of toxicity | –
14 | CCCCCCCCCC(=O)OCC [ethyl decanoate] | increasingly non-toxic | –
15 | CCCCCCCCCCCC(=O)OCC [ethyl laurate] | non-toxic | –
16 | CCCCCCCCCCCCCC(=O)OCC [ethyl myristate] | non-toxic | –
17 | CCCCCCCCCCCCCCCC [hexadecane] | Lack of toxicity | –
18 | CCCCCCOC(=O)CCCCC [hexyl hexanoate] | moderately non-toxic | –
19 | CCCCCCCCCC(=O)OC [methyl decanoate] | moderately inhibitory to growth but still allowed for growth | –
20 | CCCCCCCCCCCCCC(=O)OC [methyl myristate] | non-toxic | –
21 | CCCCCCCCOC(C)=O [octyl acetate] | toxic | –
22 | CCCCCCCC/C=C\CCCCCCCCO [oleyl alcohol] | supported robust growth | –
23 | CCCCCCCCCCCCCC [tetradecane] | Lack of toxicity | –
24 | B1 | – | Divarin (butyric acid): 1.58 mg/L; Divarinic acid (butyric acid): 1.51 mg/L; Olivetol (hexanoic acid): 2.61 mg/L; Olivetolic acid (hexanoic acid): 2.99 mg/L; activity as a hexanoyl-CoA synthetase for olivetol and olivetolic acid production (hexanoic acid; out of the tested AAE sequences): highest activity
25 | B2 | – | Divarin (butyric acid): 7.18 mg/L; Divarinic acid (butyric acid): 5.63 mg/L; activity as butyryl-CoA synthetases for divarin and divarinic acid production (butyric acid; over CsAAE1): several-fold activity improvements; Olivetol (hexanoic acid): 0.74 mg/L; Olivetolic acid (hexanoic acid): 1.60 mg/L
